Test results published in patent US20100226980A1, “NOVEL TABLET BASED ON S-ADENOSYL-METHIONINE” (VETOQUINOL, priority 2009, published 2010).

Experiment: Pharmacokinetic tests on dogs
Assay type: in vivo
Experimental: In order to confirm the results obtained in vitro, pharmacokinetic tests were carried out on dogs.

C[S+](CC[C@H](N)C(=O)O)C[C@H]1O[C@@H](n2cnc3c(N)ncnc32)[C@H](O)[C@@H]1O.Cc1ccc(S(=O)(=O)[O-])cc1 (stereo partly drawn) [SAMe, S-Adenosyl-Methionine Paratoluene Sulphonate]
absorption of SAMe (after administration of tablet): absorbed in the stomach as soon as it is administered | degradation of SAMe (after administration of tablet): not degraded | pharmacokinetic profiles of the different dogs (variability between animals): homogeneous and vary very little
